Results: paper PMC9352027, “Targeting lipid biosynthesis pathways for hepatitis B virus cure” (PLoS ONE, 2022)
pEC50: −log10 of the molar value.

How the values were obtained:
[1] = tested on: HBeAg in HBV-infected HepG2-NTCP cells; assay: microbe, parasite or virus in culture; assay type: cell-based, Hepatitis B virus genotype D (AD38); settings: HBV-infected HepG2-NTCP cells, three days of treatment, extracellular; read-out: HBeAg, EC50
Method: (§1) Production of wild-type HBV virions from HepAD38 cells was performed as previously described. HepG2-NTCP cells were bulk plated on collagen coated flasks at a density of 6x10^6 cells/ T175 flask. Following a 3-day incubation at 37°C, cells were infected with genotype D (AD38) virus at […] in the presence of 4% PEG8000 and 2.5% DMSO. HepG2-NTCP cells were washed 3 times with OPTI-MEM and maintained in Dulbecco’s modified Eagle’s medium (DMEM) supplemented with 2% FBS and 2.5% DMSO for the following 4 days. HBV-infected HepG2-NTCP cells were trypsinized, resuspended in DMEM supplemented with 2% FBS and 1% DMSO, and seeded onto serially diluted small molecule inhibitors at a 0.5% final DMSO concentration (S1 Table) in 384-well collagen coated plates at a density of 20,000 cells/well for 3 additional days.
(§2) Cell culture supernatant (3 μL) was transferred to two 1536-well plates and HBsAg and HBeAg levels subsequently measured by HTRF (Cisbio). HBsAg was measured using Terbium conjugated (XTL-17) and D2 receptor conjugated (XTL19) anti-HBsAg antibodies, while HBeAg was measured using Terbium conjugated (GWB-F19420, Genway Biotech) and D2 receptor conjugated (GWB-24DEF, Genway Biotech) anti-HBeAg antibodies. […] was measured using an Envision plate reader at emissions of 665 nm and 615 nm. The ratio of 665/615 was used to plot compound dose response curves and EC50 values were calculated from the fit of the dose−response curves to a four-parameter equation.
(§3) (A) Schematic overview of the pathways involved in lipid biosynthesis, such as DNL, TG esterification and cholesterol biosynthesis. […] (B-D) HepG2-NTCP cells infected with HBV for three days were treated with selected compounds in an eight-point dose response. After three days of treatment, extracellular HBsAg and HBeAg levels as well as cell viability were measured.

[2] = tested on: HBsAg secretion in HBV-infected HepG2-NTCP cells; assay: microbe, parasite or virus in culture; assay type: cell-based, Hepatitis B virus genotype D (AD38); settings: HBV-infected HepG2-NTCP cells
Method: as §1, §2, §3

[3] = tested on: HBV-infected HepG2-NTCP cells; assay: Cell viability by CellTiter Glo; assay type: cell-based, human; settings: three days of treatment
Method: as §1
Cells were analyzed for cell viability by addition of CellTiter Glo (Promega) to the assay plates and analyzed using an Envision plate reader (Perkin Elmer). CC50 values were calculated from the fit of the dose−response curves to a four-parameter equation. All CC50 values represent geometric mean values of a minimum of four determinations.
as §3

[4] = tested on: HBV genotype C; assay: ACC inhibitor efficacy study in HBV-infected chimeric humanized mice: serum viral markers; assay type: in vivo, human liver-chimeric uPA/SCID mice; settings: 10 mg/kg oral once daily for four weeks, throughout the study
Method: (§4) For the ACC inhibitor efficacy study, HBV-infected mice were randomized into two different treatment groups based on body weight, blood h-Alb, and serum HBV DNA concentrations. All mice had blood h-Alb levels above 12 mg/mL and serum HBV DNA levels above 2.5x10^7 copies/mL. Mice received an oral dose of 10 mg/kg ACC inhibitor or dosing vehicle (vehicle control) once daily for 29 days. ACC inhibitor was dosed in 0.5% sodium carboxymethylcellulose (medium viscosity), 1% w/v ethanol, 98.5% w/v 50 mM Tris buffer, pH 8 in reverse osmosis water (or equivalent). Terminal livers were collected, weighed, and separated into pieces that were flash frozen in liquid nitrogen or immersed in RNAlater solution (Life Technologies, Carlsbad, CA).
(§5) Whole blood h-Alb was determined using (BioMajestyTM Series JCA-BM6050, JEOL Ltd., Tokyo, Japan). Serum human alanine aminotransferase (h-ALT1) concentration was determined based on Enzyme-Linked ImmunoSorbent Assay (ELISA) developed by Institute of Immunology Co., Ltd. (Tokyo, Japan). […] Serum HBsAg and HBeAg concentration were determined by SRL, Inc. (Tokyo, Japan) based on Chemiluminescent Enzyme Immuno Assay (CLEIA) developed by Fujirebio. […] RNA was isolated from RNAlater®-immersed liver samples with RNeasy kit following manufacturer’s instructions (Qiagen). qRT-PCR on the targeted genes was evaluated by Taqman (Assay IDs Hs04984975_m1 (SREBF1), Hs01682761_m1 (SCD), Hs01005622_m1 (FASN), Hs01046047_m1 (ACACA) and normalized to GAPDH endogenous control (Assay ID 4310884E).
(§6) Using the same batch of human hepatocytes and HBV virus used for the metabolomic and RNAseq analyses, mice (n = 7/group) were dosed orally eight weeks post HBV infection with vehicle or 10 mg/kg ACC inhibitor once daily for four weeks. HBV viral markers (HBsAg, HBeAg, and HBV DNA) and liver toxicity markers (ALT, h-Alb) were measured weekly (Fig 5A). On-target activity was evaluated by monitoring changes in triglycerides and liver mRNA expression levels of genes in the targeted pathway (Fig 5A).

[5] = two hours post dosing
Method: as §4, with “Terminal livers were collected, weighed, and separated into pieces that were flash frozen in liquid nitrogen or immersed in RNAlater solution (Life Technologies, Carlsbad, CA).” left out
as §5

[6] = tested on: ACC; assay: On-target activity: serum and liver triglycerides and liver mRNA by qRT-PCR; assay type: in vivo, human liver-chimeric uPA/SCID mice; settings: 10 mg/kg oral once daily, versus vehicle
Method: as §4
Whole blood h-Alb was determined using (BioMajestyTM Series JCA-BM6050, JEOL Ltd., Tokyo, Japan). Serum human alanine aminotransferase (h-ALT1) concentration was determined based on Enzyme-Linked ImmunoSorbent Assay (ELISA) developed by Institute of Immunology Co., Ltd. (Tokyo, Japan). The real-time detection PCR to measure the serum HBV DNA concentration was performed using the KUBIX HBV qPCR Kit (KUBIX Inc.) and CFX96 Touch™ Real-Time PCR Detection System. […] Serum HBsAg and HBeAg concentration were determined by SRL, Inc. (Tokyo, Japan) based on Chemiluminescent Enzyme Immuno Assay (CLEIA) developed by Fujirebio. Serum and intrahepatic triglycerides analysis were performed by Skylight Biotech Inc. (Akita, Japan). Terminal plasma and liver were collected 2-hours after ACC inhibitor dose for PK analysis which was performed by Charles River Laboratories (Wilmington, MA). RNA was isolated from RNAlater®-immersed liver samples with RNeasy kit following manufacturer’s instructions (Qiagen). qRT-PCR on the targeted genes was evaluated by Taqman (Assay IDs Hs04984975_m1 (SREBF1), Hs01682761_m1 (SCD), Hs01005622_m1 (FASN), Hs01046047_m1 (ACACA) and normalized to GAPDH endogenous control (Assay ID 4310884E).
as §6

[7] = assay type: in vivo, human liver-chimeric uPA/SCID mice; settings: 10 mg/kg oral once daily for four weeks
Method: All animal work was performed by PhoenixBio Co, Ltd (Higashi-Hiroshima City, Japan). Detailed observations of general condition and individual body weights were conducted once daily throughout the in-life phase. All animal protocols were performed in accordance with the Guide for the Care and Use of Laboratory Animals and approved by the Animal Welfare Committee of Phoenix Bio Co., Ltd. All mice were housed individually and maintained in accordance with the Animal Ethics Committee of PhoenixBio (resolution #2518 and 2552). All surgery was performed under isoflurane anesthesia, and all efforts were made to minimize suffering. On Day 17, Animal ID No. 107 (vehicle-treated) was found dead.

[8] = tested on: DNL in HepG2 cells; design: method as in PMID 32376414, doi:10.1002/hep.31579; settings: cited from earlier work
[9] = tested on: triglyceride accumulation in HepG2 cells; design: method as in PMID 32376414, doi:10.1002/hep.31579; settings: read-out: palmitic acid-induced triglyceride accumulation EC50; cited from earlier work
[10] = tested on: HBsAg secretion in Hep3B cells; design: method as in PMID 14517078; settings: depletion of cellular cholesterol; cited from earlier work

Structure (SMILES)	pEC50 [1]	selectivity HBsAg versus HBeAg [2]	inhibition of HBsAg secretion ([2]; maximal (up to))	pEC50 ([2]; three days of treatment, extracellular, read-out: HBsAg, EC50)	CC50 [3] [µM]	reduction in serum HBV DNA levels [4]	reduction in serum HBeAg levels [4]	reduction in serum HBsAg levels [4]	Liver exposure over protein-adjusted EC50 (paEC50) ([5]; paEC50 based on HepG2-serum free-DNL assay) [fold]	Liver exposure ([5]; 10 mg/kg oral once daily, HBV-infected chimeric humanized mice) [nM]	increase in serum triglycerides ([6]; day 17 of treatment) [%]	reduction in liver triglycerides ([6]; day 29 of treatment) [%]	liver mRNA expression level of ACACA ([6]; qRT-PCR)	liver mRNA expression level of FASN ([6]; qRT-PCR)	liver mRNA expression level of SCD ([6]; qRT-PCR)	liver mRNA expression level of SREBF1 ([6]; qRT-PCR)	toxicity based on body weight change, serum ALT, and h-Alb levels [7]	pEC50 [8]	pEC50 [9]	HBsAg secretion [10]
COc1ccccc1[C@H](Cn1c(=O)n(C(C)(C)C(=O)O)c(=O)c2c(C)c(-c3ncco3)sc21)O[C@H]1CC[C@@H](O)CC1 [ACC inhibitor, 2-(1-((R)-2-(((1s,4S)-4-hydroxycyclohexyl)oxy)-2-(2-methoxyphenyl)ethyl)-5-methyl-6-(oxazol-2-yl)-2,4-dioxo-1,4-dihydrothieno[2,3-d]pyrimidin-3(2H)-yl)-2-methylpropanoic acid]	5.02	inhibition of HBeAg but at a higher concentration than HBsAg	up to 80%	7.54	> 10	no reduction	no reduction	no reduction	4.5	740	30	40	statistically significant increase	statistically significant increase	statistically significant increase	increased with ACC treatment albeit did not reach statistical significance	no evidence of toxicity	8.18	7.64	–
CC[C@H](C)C(=O)O[C@H]1C[C@@H](C)C=C2C=C[C@H](C)[C@H](CC[C@@H]3C[C@@H](O)CC(=O)O3)[C@H]21 [lovastatin]	–	–	–	–	–	–	–	–	–	–	–	–	–	–	–	–	–	–	–	significantly reduced
